Results: patent publication US20220362174A1, “Use of R-enantiomer Beta2-agonists for prevent and treatment of pulmonary inflammation and inflammatory remodeling for reduced adverse effects” (priority 2019, published 2022)
“Also recorded” adds a separate entry of the source.

Experiments:
[1] = tested on: LPS-induced macrophage RAW264.7 cells; experiment: M1 macrophage cytokines (TNF-α, IL-1β, MCP-1) by ELISA; assay type: cell-based
Protocol: (§1) Macrophages were treated without or with (R)/(S)-salbutamol for 1 h prior to LPS stimulation and subsequently incubated for 12 h. […] The fluorescence of the oxidized product (2′,7′-dichlorofluorescein, DCF) was assessed using an LSM710 Laser Scanning Confocal Microscope (Carl Zeiss, Jena, Germany). The concentration of NO in the culture supernatant was measured by assaying the concentrations of nitrite (a stable NO breakdown product) using the Griess assay (Beyotime, Shanghai, China), according to the manufacturer's instructions. The intracellular NO level was detected using the NO-sensitive fluorescence probe DAF-FM DA (Sigma, St. Louis, Mo., USA) (24). Cells were labeled with DAF-FM DA (10 μM) at 37° C. for 30 min and were gently washed three times with PBS. Fluorescence was detected using a LSM710 Laser Scanning Confocal Microscope (Scale bars, 100 μm) (Carl Zeiss, Jena, Germany).
To confirm that M1 polarization was predominant over M2 polarization after stimulation with LPS, the levels of typical M1 macrophage cytokines (i.e., TNF-α, IL-1β and MCP-1) were quantified using ELISA; these cytokines are mainly synthesized by macrophages and play an important role in inflammatory diseases (35,36). This invention disclosed that TNF-α […] from 2.62-fold to 0.75-fold of control levels following LPS stimulation (FIG. 8A). IL-1β is a hallmark of many chronic inflammatory diseases in humans and is reportedly associated with acute phase reactions (35,37). […] We conclude that LPS is likely to lead to M1 polarization but not M2 polarization.

[2] = tested on: OVA induced asthma mice; experiment: Combination therapy of ipratropium with R- and S-salbutamol: lung histopathology (Masson, PAS); assay type: in vivo
Protocol: Left lung tissue was obtained for histopathology and fixed in 10% formalin for 24 h, followed by paraffin-embedded and then were sectioned at 4 μm for routine staining with hematoxylin and eosin (H&E, Solarbio, Beijing, China), or with periodic acid-Schiff (PAS, Solarbio, Beijing, China), or submitted to Masson's trichrome staining (Baso, Zhuhai, China). Images of the stained lung sections were obtained by an Axisplus image-capturing system (Zeiss, Germany) and then a minimum of 3 bronchi (luminal diameter, 150-500 μm) were analyzed per mice for various parameters using an image analyzing computer system (IPP) by pathologists blinded to grouping. Histological score, airway smooth muscle thickness, PAS score (goblet cells hyperplasia), and collagen deposition were evaluated by a semi-quantitative scoring method.
Methods used were similar as mentioned above. Nebulized aerosol of saline, Methacholine 2 mg/ml (low dose) or 10 mg/ml (high dose) were given via inhalation to OVA induced asthma mice.

[3] = tested on: iNOS; experiment: iNOS mRNA and protein levels; assay type: cell-based
Protocol: In addition, the concentration of NO in the culture supernatant was measured by assaying the concentrations of nitrite (a stable NO breakdown product) using the Griess assay. […] To investigate (R)-salbutamol role on the level of iNOS, the mRNA and protein levels of iNOS were determined.

[4] = tested on: LPS-induced RAW264.7 cells; experiment: mRNA expression of TNF-α, IL-1β and MCP-1 by quantitative real-time PCR; assay type: cell-based; conditions: pretreated prior to LPS
Protocol: as §1
To examine the mRNA expression of TNF-α, IL-1β and MCP-1, quantitative real-time PCR was performed. Consistent with the cytokine expression study, the mRNA expression of TNF-α was increased by 2.26-fold in the LPS-induced group compared to the control group (FIG. 8D). The mRNA expression of IL-1β and MCP-1 increased by 12.74-fold (FIG. 8E) and 3.1-fold, respectively, in the LPS-induced group compared to the control group (FIG. 8F).

[5] = tested on: RAW264.7 cells; experiment: Cell viability, CCK-8 assay; assay type: cell-based; conditions: up to 100 μM, with or without LPS (100 ng/mL)
[6] = tested on: LPS-induced RAW264.7 cells; experiment: Intracellular ROS (DCFH-DA); assay type: cell-based
Protocol: as §1
LPS can promote cell apoptosis through mitochondrial dysfunction, and mitochondria are the major source of ROS.

[7] = tested on: OVA induced asthma mice; experiment: Combination therapy of ipratropium with RS-, R- and S-salbutamol: airway resistance in response to methacholine; assay type: in vivo
Protocol: OVA sensitized/challenged asthma model Mice were sensitized and challenged with ovalbumin (OVA) or normal saline. […] On days 21, 22 and 23, the mice were challenged with 1% OVA in saline (0.01 g/mL) for 20 min via. a nebulizer (PART Turbo boy). […] In vivo airway responsiveness to methacholine (Mch) was assessed on day 28 in conscious, freely moving, spontaneously breathing mice by a whole-body plethysmography (Buxco Electronics Inc.). […] Before Mch challenge, a 20 μL drug aerosol or saline was given to the mice because of the short-acting bronchodilating effect of terbutaline. The degree of bronchoconstriction was expressed as enhanced pause (Penh), a calculated dimensionless value that correlates with measurement of airway resistance, impedance, and intrapleural pressure. […] Methods used were similar as mentioned above. Nebulized aerosol of saline, Methacholine 2 mg/ml (low dose) or 10 mg/ml (high dose) were given via inhalation to OVA induced asthma mice.

[8] = tested on: BALB/c mice; experiment: Lung function measurements 6 hours after LPS (Buxco); assay type: in vivo
Protocol: Methods: Survival study: […] Treatment were given intraperitoneally for 3 consecutive days. […] The animals were monitored. Survival rate was then recorded every 12 h for 144 hours. The lung functions were measured with using Buxco system (Buxco Electronics, USA). After a brief acclimation to the chamber, the mice received an initial baseline challenge of saline. Measures were made at 6 hours after administration of LPS, including tidal volume and Penh which is an indication of airway resistance.

[9] = tested on: NF-κB and MARK pathways; experiment: NF-κB and MARK pathways, cytokines and ROS in LPS sepsis
From the text: LPS interacts with pathogen recognition receptors such as TLRs would also activate NF-κB and MARK pathways, which would further lead to an over-production of cytokines. […] The “cytokine storm” in sepsis involves in excessive release of INFs, IL-1B, IL-2,4,6,10,12, TNFa and MCP etc.
In sepsis, there are also over productions of chemokines such as ROS. […] This invention disclosed the similar effects of other RS-racemic, S-enantiomer or R-enantiomer beta2 agonists including: salbutamol, bambuterol, vilanterol, clenterol, salmeterol, formoterol, trantinterol and Indacaterol and other β2 agonists.

CC(C)(C)NC[C@H](O)c1ccc(O)c(CO)c1 [R-salbutamol, (R)-Salbutamol]
concentration of MCP-1 (ELISA) ([1]; LPS alone 1.588 ng/mL): 1.15 ng/mL | IL-1β (ELISA) ([1]; LPS alone 2.24-fold): 1.12 fold of control levels | TNF-α (ELISA) ([1]; LPS alone 2.62-fold): 0.75 fold of control levels | release and expression of cytokines in LPS induced M1 macrophages (in words) ([1]; LPS challenge): inhibited the expression of cytokines | PAS staining: goblet cell hyperplasia, mucus over secretion, airway edema ([2]; vs OVA model): significant therapeutic benefit | Masson staining: collagen deposition, wall thickness of bronchiole and vascular vessels ([2]; vs ova (model) group): significant therapeutic effects | iNOS protein levels ([3]; LPS+ (R)-salbutamol vs LPS): same changes | iNOS mRNA level ([3]; pretreated plus LPS, vs LPS): decreased; also recorded: inhibited | mRNA level of TNF-α ([4]; LPS alone 2.26-fold of control): significantly decreased | mRNA level of MCP-1 ([4]; LPS alone 3.1-fold of control): significantly decreased | mRNA level of IL-1β ([4]; LPS alone 12.74-fold of control): significantly decreased | cell viability [5]: no changes in cell viability | production/levels of ROS (in words) ([6]; LPS-induced cells): significantly decreased | decrease of the level of DCF (ROS) ([6]; pretreated before LPS, LPS increased 7.30-fold): 3.38 fold | increase in airway resistant in response to methacholine (in words) [7]: significantly diminished | increase in airway resistance after treatment ([7]; response to methacholine, OVA + Saline 445%): 180% | deterioration of respiratory function induced by LPS (in words) [8]: restored | Tidal volume ([8]; 0.1 mg/kg, LPS + saline 0.13 ± 0.03, Saline 0.22 ± 0.02): 0.17 ± 0.02 mL | Penh ([8]; 0.1 mg/kg, LPS + saline 1.31 ± 0.40, Saline 0.54 ± 0.09): 0.68 ± 0.09 | Tidal volume ([8]; 0.5 mg/kg, LPS + saline 0.13 ± 0.03): 0.21 ± 0.02 mL | Penh ([8]; 0.5 mg/kg, LPS + saline 1.31 ± 0.40): 0.53 ± 0.07 | over production of inducible NO (iNO) and another ROS ([9]; LPS sepsis): significantly prevent and inhibit | production or release of cytokines (cytokine storm) ([9]; sepsis): significantly reduced
